Measurements as given in US20230087941A1, “COMBINATIONS” (Recurium IP Holdings, LLC, priority 2019, published 2023).

Experiments:
[1] = tested on: ZR-75-1-R breast cancer tumor cells (Tamoxifen resistant); test: ZR-75-1-R xenograft tumor model; type: in vivo; settings: oral, daily, 28 days, ZR-75-1-R xenograft in BALB/c nude mice
Method: (§1) ZR-75-1-R breast cancer tumor cells (Tamoxifen resistant) were maintained in vitro as monolayer culture in RPMI1640 Medium supplemented with 10% fetal bovine serum and 10 μM tamoxifen at 37° C. in an atmosphere of 5% CO2 in air. The cells growing in an exponential growth phase were harvested and counted for tumor inoculation. BALB/c nude mice were implanted subcutaneously in the right flank with ZR-75-1-R tumor cells (1×10^7) in 100 μl PBS:Matrigel (1:1). When tumors reached approximately 191 mm^3, animals were randomly distributed into treatment groups of 10 animals each and dosed orally, daily with vehicle, freebase Compound (A) at 30 mg/kg, Compound 1 at 80 mg/kg, or compound A at 30 mg/kg in combination with Compound 1 at 80 mg/kg for 28 days. In addition, estradiol benzoate injections were delivered by s.c. (40 μg/20 μL, twice weekly). Tumor volumes were evaluated twice per week to calculate tumor volume over time, and mice were weighed twice per week as a surrogate for signs of toxicity. Tumor growth inhibition (TGI) was calculated using the following equation TGI=(1−(Td−T0)/(Cd−C0))×100%. Td and Cd are the mean tumor volumes of the treated and control animals, and TO and CO are the mean tumor volumes of the treated and control animals at the start of the experiment.

[2] = tested on: MCF-7 breast cancer tumor cells; test: MCF-7 xenograft tumor model; type: in vivo; settings: Compound 1 80 mg/kg, oral, daily; MCF-7 xenograft in BALB/c nude mice
Method: as §1, with “In addition, estradiol benzoate injections were delivered by s.c. (40 μg/20 μL, twice weekly).” left out, “Tumor growth inhibition (TGI) was calculated using the following equation TGI=(1−(Td−T0)/(Cd−C0))×100%. Td and Cd are the mean tumor volumes of the treated and control animals, and TO and CO are the mean tumor volumes of the treated and control animals at the start of the experiment.” left out
Example 2: MCF-7 breast cancer tumor cells were cultured in vitro in DMEM Medium supplemented with 15% fetal bovine serum at 37° C. in an atmosphere of 5% CO2 in air. The cells growing in an exponential growth phase were harvested and counted for tumor inoculation. […] Tumor volumes were evaluated twice per week to calculate tumor volume over time, and mice were weighed twice per week as a surrogate for signs of toxicity. TGI values were calculated using the equation provide in Example 1.

Row | Structure (SMILES) | Tumor growth inhibition (TGI) ([1]; freebase Compound (A) 30 mg/kg) [%] | Tumor growth inhibition (TGI) [2] [%] | Tumor growth inhibition (TGI) ([1]; Compound 1 80 mg/kg) [%]
1 | C[C@@H]1Cc2c([nH]c3ccccc23)[C@@H](c2c(F)cc(/C=C/C(=O)O)cc2F)N1C12CC(C1)C2 [Compound (A)] | 43.0 |  | 
2 | C=CCn1c(=O)c2cnc(Nc3ccc(N4CCN(C)CC4)cc3)nc2n1-c1ccc2c(n1)[C@@](O)(CC)CC2 [Compound 1] |  | 132.6 | 69.9
